Tests used:
[1] = test system: cardiomyopathic hamsters; experiment: Cardiovascular effects in conscious cardiomyopathic hamsters with compensated heart failure; format: in vivo, hamsters of the BIO TO-2 strain; settings: for left ventricular end diastolic pressure, effect in words / left ventricular systolic pressure, effect in words: summary of the discussion, up to 90 minutes after last treatment
Experimental: (§1) The studies described in this experiment were conducted in male hamsters of the BIO TO-2 strain when they were approximately 260 days of age and weighed on average 115 g. These animals develop a genetic form of cardiomyopathy that progresses uniformly among animals through different stages of heart failure. By 240 - 300 days of age the cardiomyopathic hamsters are characterized (as compared with control hamsters) by low mean arterial pressure, a 40% reduction in cardiac output and a decrease in renal blood flow. They display elevated cardiac filling pressure, depressed ventricular function, increased peripheral vascular resistance and have an 8-10-fold increase in plasma atrial natriuretic peptide concentration.
(§2) The experiments were conducted in conscious, unrestrained, cardiomyphathic hamsters three hours after placement of cardivascular catheters using brief anesthesia. The catheters allowed measurement of mean arterial pressure, left ventricular end diastolic pressure, left ventricular systolic pressure and heart rate, and provided a means for the administration of agents intravenously.
In this series of experiments baseline measurements of left ventricular end diastolic pressure, left ventricular systolic pressure and heart rate were determined in groups of conscious cardiomyopathic hamsters. Compounds or vehicle were administered intravenously, and measurements were repeated at 30-minute intervals up to 90 minutes after administration of the last agent. BMS 186295 was administered at 30 µmol/kg, i.v. (0.3 ml) followed by a continuous i.v. infusion at 1 µmol/kg per min (0.01 ml/min). BMS 186295 was prepared in 0.028 M potassium hydroxide and diluted to a final concentration of 0.17 M potassium hydroxide. Potassium hydroxide solution (0.17 M) was administered intravenously to the vehicle group at 0.3 ml followed by a continuous infusion at 0.01 ml/min. SQ 28603 was dissolved in 0.84% sodium bicarbonate and administered at 30 µmol/kg, i.v. This dose of SQ 28603 was previously shown to result in a doubling of plasma atrial natriuretic peptide concentration within 90 minutes in this model. One group of cardiomyopathic hamsters received the combination of BMS 186295 and SQ 28603. In this group BMS 186295 was administered according to the same dosage regimen described above; 30 minutes after the bolus injection of BMS 186295, SQ 28603 was administered at 30 µmol/kg, i.v.
Differences in age, body weight and baseline values among groups were evaluated by analysis of variance. Differences in changes from baseline among groups were evaluated by analysis of covariance with repeated measures and contrasts. The baseline value for each variable was used as the covariate. The level of significance was taken at P < 0.05. All data are expressed as mean ± standard error of the mean.

[2] = test system: angiotensin II receptors; experiment: Inhibition of the pressor response to angiotensin II in conscious cardiomyopathic hamsters; format: in vivo, hamsters of the BIO TO-2 strain; settings: for Change in mean arterial pressure: pressor response to angiotensin II 100 ng/kg i.v.
Experimental: as §1, §2
Preliminary experiments were conducted in conscious cardiomyopathic hamsters to determine a dose regimen of BMS 186295 that would nearly completely block the pressor response to angiotensin II for at least two hours. The pressor responses to two challenges of angiotensin II (100 ng/kg, i.v. dissolved in 0.9% sodium chloride, 1 ml/kg) were determined. This dose of angiotensin II produced over a 30% increase in mean arterial pressure. Based on the preliminary experiments, BMS 186295 was administered to 5 cardiomyopathic hamsters at 30 µmol/kg, i.v. followed by continuous i.v. infusion at 1 µmol/kg per min. Challenges of angiotensin II were then repeated at 10- to 30-minute intervals up to 150 minutes following the bolus injection of BMS 186295.

[3] = test system: cardiomyopathic hamsters; settings: 30 µmol/kg, i.v.; within 90 minutes; previously shown in this model; cited from earlier work
[4] = 30′, BMS 186295 30 µmol/kg i.v. + 1 µmol/kg per min, SQ 28603 30 µmol/kg i.v.
[5] = 60′, BMS 186295 30 µmol/kg i.v. + 1 µmol/kg per min, SQ 28603 30 µmol/kg i.v.
[6] = 90′, BMS 186295 30 µmol/kg i.v. + 1 µmol/kg per min, SQ 28603 30 µmol/kg i.v.
[7] = 30 minutes after last treatment, BMS 186295 30 µmol/kg i.v. + 1 µmol/kg per min, SQ 28603 30 µmol/kg i.v.
[8] = 60 minutes after last treatment, BMS 186295 30 µmol/kg i.v. + 1 µmol/kg per min, SQ 28603 30 µmol/kg i.v.
[9] = 90 minutes after last treatment, BMS 186295 30 µmol/kg i.v. + 1 µmol/kg per min, SQ 28603 30 µmol/kg i.v.
[10] = table line headed 'BMS 186295 SQ 28603', between Baseline and 30′ (time of treatment)

SMILES | Heart Rate [1, 4] [beats/min] | Left Ventricular End Diastolic Pressure [1, 4] [mm Hg] | Left Ventricular Systolic Pressure [1, 4] [mm Hg] | Heart Rate [1, 5] [beats/min] | Left Ventricular End Diastolic Pressure [1, 5] [mm Hg] | Left Ventricular Systolic Pressure [1, 5] [mm Hg] | Heart Rate [1, 6] [beats/min] | Left Ventricular End Diastolic Pressure [1, 6] [mm Hg] | Left Ventricular Systolic Pressure [1, 6] [mm Hg] | Left Ventricular End Diastolic Pressure, Change From Baseline [1, 7] [mm Hg] | Left Ventricular Systolic Pressure, Change From Baseline [1, 7] [mm Hg] | Left Ventricular End Diastolic Pressure, Change From Baseline [1, 8] [mm Hg] | Left Ventricular Systolic Pressure, Change From Baseline [1, 8] [mm Hg] | Left Ventricular End Diastolic Pressure, Change From Baseline [1, 9] [mm Hg] | Left Ventricular Systolic Pressure, Change From Baseline [1, 9] [mm Hg] | Heart Rate ([1]; Baseline, before treatment) [beats/min] | Left Ventricular End Diastolic Pressure ([1]; Baseline, before treatment) [mm Hg] | Left Ventricular Systolic Pressure ([1]; Baseline, before treatment) [mm Hg] | left ventricular end diastolic pressure, effect in words [1] | left ventricular systolic pressure, effect in words [1] | other results
CCCCC1=NC2(CCCC2)C(=O)N1Cc1ccc(-c2ccccc2-c2nnn[nH]2)cc1 [BMS 186295, 2-butyl-6,7,8,9-tetrahydro-3-[[2'-(1H-tetrazol-5-yl)[1,1'-biphenyl]-4-yl]-methyl]-1,3-diazaspiro[4.4]nonan-4-one] | 363 ± 20 | 16 ± 2 | 114 ± 2 | 367 ± 18 | 16 ± 2 | 111 ± 2 | 369 ± 28 | 18 ± 3 | 112 ± 5 | -1 ± 1 | 2 ± 2 | -1 ± 1 | -1 ± 2 | 1 ± 2 | 1 ± 5 | 338 ± 16 | 17 ± 2 | 112 ± 2 | no significant effects | no significant effects | Heart Rate [1, 10]: 364 ± 14 beats/min; Left Ventricular End Diastolic Pressure [1, 10]: 18 ± 2 mm Hg; Left Ventricular Systolic Pressure [1, 10]: 111 ± 1 mm Hg; pressor responses to angiotensin II, of the response before the administration of the inhibitor ([2]; following 30 µmol/kg, i.v. then 1 µmol/kg per min, up to 150 minutes): less than 17%; Change in mean arterial pressure ([2]; 10′ after 30 µmol/kg, i.v. followed by 1 µmol/kg/min, i.v.): 3±2 mm Hg; Change in mean arterial pressure ([2]; 20′ after 30 µmol/kg, i.v. followed by 1 µmol/kg/min, i.v.): 2±1 mm Hg; Change in mean arterial pressure ([2]; 30′ after 30 µmol/kg, i.v. followed by 1 µmol/kg/min, i.v.): 3±2 mm Hg; Change in mean arterial pressure ([2]; 40′ after 30 µmol/kg, i.v. followed by 1 µmol/kg/min, i.v.): 2±1 mm Hg; Change in mean arterial pressure ([2]; 50′ after 30 µmol/kg, i.v. followed by 1 µmol/kg/min, i.v.): 1±1 mm Hg; Change in mean arterial pressure ([2]; 60′ after 30 µmol/kg, i.v. followed by 1 µmol/kg/min, i.v.): 4±1 mm Hg; Change in mean arterial pressure ([2]; 70′ after 30 µmol/kg, i.v. followed by 1 µmol/kg/min, i.v.): 5±2 mm Hg; Change in mean arterial pressure ([2]; 80′ after 30 µmol/kg, i.v. followed by 1 µmol/kg/min, i.v.): 4±1 mm Hg; Change in mean arterial pressure ([2]; 90′′ after 30 µmol/kg, i.v. followed by 1 µmol/kg/min, i.v.): 3±1 mm Hg; Change in mean arterial pressure ([2]; 150′ after 30 µmol/kg, i.v. followed by 1 µmol/kg/min, i.v.): 2±1 mm Hg; Change in mean arterial pressure ([2]; 120 min after 30 µmol/kg, i.v. followed by 1 µmol/kg/min, i.v.): 3±1 mm Hg; Change in mean arterial pressure ([2]; -10′, before BMS-186295): 31±3 mm Hg; Change in mean arterial pressure ([2]; -20′, before BMS-186295): 29±2 mm Hg
O=C(O)CCNC(=O)C(CS)Cc1ccccc1 (racemic) [SQ 28603, (±)-N-[2-(mercaptomethyl)-1-oxo-3-phenylpropyl]-β-alanine] | 381 ± 9 | 14 ± 2 | 109 ± 5 | 366 ± 9 | 17 ± 3 | 105 ± 4 | 378 ± 8 | 16 ± 3 | 105 ± 5 | 4 ± 1 | -8 ± 1 | -1 ± 2 | -12 ± 3 | -2 ± 1 | -12 ± 2 | 378 ± 12 | 18 ± 3 | 117 ± 5 | smaller decreases | smaller decreases | Heart Rate, Change From Baseline [1, 7]: 3 ± 8 mm Hg; Heart Rate, Change From Baseline [1, 8]: -13 ± 12 mm Hg; Heart Rate, Change From Baseline [1, 9]: -1 ± 9 mm Hg; Heart Rate [1, 10]: 380 ± 7 beats/min; Left Ventricular End Diastolic Pressure [1, 10]: 14 ± 3 mm Hg; Left Ventricular Systolic Pressure [1, 10]: 108 ± 5 mm Hg; plasma atrial natriuretic peptide concentration [3]: doubling

— patent EP0726072A2, “Composition for the treatment of hypertension and congestive heart failure, containing an angiotensin II antagonist and an endopeptidase inhibitor” (BRISTOL-MYERS SQUIBB COMPANY, priority 1995, dated 1996)
